Measurements as given in patent US20040248769A1, “Enzyme inhibitors for inactivating allergens” (priority 2001, published 2004).
Where a SMILES comes first, the peptide text is derived from it. [ ]: non-standard residue; d: D form. The star is where a group is joined. AMC = Cc1cc(=O)oc2cc(N*)ccc12; pGlu = O=C1CC[C@@H](C(=O)O)N1; Bz = O=C(c1ccccc1)*; CH2Cl = ClC*

Assays:
[1] = system: Cat1 S3 fur extract proteolytic activity; experiment: Inhibition of the proteolytic activity in animal fur by proteinase inhibitors; type: biochemical, cat; settings: Cat1 S3, 10 μM inhibitor
Experimental: (§1) […] The assay was begun with substrate and sample and a continuous rate of product formation (nM/min) was measured (v0) for 15 min. The inhibitor was added to a final concentration of 10 μM in negligible volume from stock solution in dimethyl sulfoxide. The assay was continued for a further 15 min.
(§2) Under these conditions reversible inhibition can be measured as the new steady state (v1) with percentage inhibition being 1−(v1/v0)×100. Irreversible inhibition is measured as a second order rate constant and is time dependent but as long as the inhibitor is present in molar excess should always lead eventually to total inhibition. No distinction was made and inhibition is presented as a percentage of full activity. See results table 4.

[2] = system: G.pig2 S1 fur extract proteolytic activity; experiment: as above; type: biochemical, guinea pig; settings: G.pig2 S1, 10 μM inhibitor, substrate 2 Z-Phe-Arg-NHMec
Experimental: as §1, §2

[3] = system: Horse1 S1 mane extract proteolytic activity; experiment: as above; type: biochemical, horse; settings: Horse1 S1, 10 μM inhibitor, substrate 2 Z-Phe-Arg-NHMec
Experimental: as §1, §2

[4] = system: Horse1 S2 fur extract proteolytic activity; experiment: as above; type: biochemical, horse; settings: Horse1 S2, 10 μM inhibitor, substrate 2 Z-Phe-Arg-NHMec
Experimental: as §1, §2

[5] = system: Dog2 S1 fur extract proteolytic activity; experiment: as above; type: biochemical, dog; settings: Dog2 S1, 10 μM inhibitor, substrate 2 Z-Phe-Arg-NHMec
Experimental: as §1, §2

[6] = system: Cat1 S3 fur extract proteolytic activity; experiment: Proteolytic activity of fur extract against NHMec substrates; type: biochemical, cat; settings: sample Cat1 S3, 5 μM substrate, 37° C., pH 7.5
Experimental: (§3) A clean pet brush was used to brush three common English domestic cats. Fur from guinea pigs, rabbit, dogs and horse was collected in the same way. A different brush was used for each species and between brushings these were cleaned thoroughly in a denaturing detergent solution (Fairy® detergent) and then ethanol. The brushings were transferred to a sterile universal container and extracted by shaking in an extraction buffer, 50 mM Tris.HCl, 5 mM CaCl2, pH 7.5 (0.1 g/ml). The solution was recovered by centrifugation and stored at −20° C. in aliquots. Saliva was collected from a mastiff-type dog and stored frozen in aliquots until assayed. Sample aliquots were assayed for proteolytic activity using fluorometric blocked peptidylaminomethylcoumarylamide substrates in the cuvette of a Perkin Elmer fluorimeter at 37° C. The fluorimeter was standardised with a known concentration of methylcoumarin, and the assays were designed so that no more than 10% substrate hydrolysis occurred.
(§4) Assays were performed in assay buffer; 50 mM Tris.HCl, 5 mM CaCl2, 0.1% CHAPS, pH 7.5. Data were collected in real-time on a personal computer using the Flusys software package.
(§5) In the first series of experiments the sample (12 μl) was assayed against a range of serine and cysteine proteinase aminomethylcoumarylamide (NHMec) substrates (obtained commercially from Bachem) under standard conditions of 5 μM substrate concentration (from a 100-fold stock solution in dimethyl sulfoxide) to give a final volume of 120 μl. After addition of substrate the rate without sample was determined (which in all cases was zero), after which the sample was applied and the progress of the reaction was followed for a further 15 min. The slope obtained (fluorescence vs time) was analysed by linear regression and converted to rate of product formation (nM/min) see results table 2.

[7] = system: Cat1 S3 fur extract proteolytic activity; experiment: Determination of Ki for the inhibition of Cat1 S3 by leupeptin; type: biochemical, cat; set-up: V1: unit not given beside the values
Experimental: The assays were carried out as described above, using 5 μM Z-Gly-Gly-Arg-NHMec as substrate in assay buffer. The assay was begun with substrate and sample and a continuous rate of product formation (nM/min) was measured (v0) for 15 min. […] The assay was continued for a further 15 min.
as §2

[8] = system: Cat1 S1 fur extract proteolytic activity; experiment: Proteolytic activity of fur extract against NHMec substrates; type: biochemical, cat; settings: sample Cat1 S1, 5 μM substrate, 37° C., pH 7.5
Experimental: as §3, §4, §5

[9] = system: Cat2 S1 fur extract proteolytic activity; experiment: as above; type: biochemical, cat; settings: sample Cat2 S1, 5 μM substrate, 37° C., pH 7.5
Experimental: as §3, §4, §5

[10] = substrate 1 Z-Gly-Gly-Arg-NHMec

CC(C)C[C@H](NC(=O)[C@H]1O[C@@H]1C(=O)O)C(=O)NCCCCN=C(N)N (relative stereo) [E64, L-trans epoxysuccinyl-leucylamido-4-guanidino-butane]
% Inhibition [1, 10]: 20.4%
v1 (rate after inhibitor) [1, 10]: 2.005 nM/min

O=c1oc(Cl)c(Cl)c2ccccc12 [3,4-Dichloroisocoumarin]
% Inhibition [1, 10]: 35.4%
v1 (rate after inhibitor) [1, 10]: 1.837 nM/min

N=C(N)SCCCOc1oc(=O)c2cc(N)ccc2c1Cl [ACITIC, 7-amino-4-chloro-3-(-3-isothiureido-propoxy) isocoumarin]
% Inhibition [1, 10]: 100%
v1 (rate after inhibitor) [1, 10]: 0.002 nM/min
% Inhibition [2]: 94.8%
v1 (rate after inhibitor) [2]: 0.964 nM/min
% Inhibition [3]: 100%
v1 (rate after inhibitor) [3]: 0 nM/min
% Inhibition [4]: 100%
v1 (rate after inhibitor) [4]: 0 nM/min
% Inhibition [5]: 71.2%
v1 (rate after inhibitor) [5]: 0.184 nM/min

Cc1cc(=O)oc2cc(NC(=O)[C@H](CCCN=C(N)N)NC(=O)[C@@H](NC(=O)[C@H](Cc3ccccc3)NC(=O)c3ccccc3)C(C)C)ccc12 [Bz-Phe-Val-Arg-NHMec] (Bz-Phe-Val-Arg-{AMC})
Rate [6]: 32.1 nM/min

NC(N)=NCCC[C@H](NC(=O)CNC(=O)[C@@H](N)CCC(=O)O)C(=O)CCl [H-Glu-Gly-Arg-chloromethane] (H-Glu-Gly-Arg-CH2Cl)
% Inhibition [1, 10]: 98.7%
v1 (rate after inhibitor) [1, 10]: 0.143 nM/min

CC(=O)N[C@@H](CC(C)C)C(=O)N[C@@H](CC(C)C)C(=O)N[C@H](C=O)CCCNC(=N)N [Leupeptin, acetyl-Leu-Leu-Arg-CHO]
% Inhibition [1, 10]: 100%
v1 (rate after inhibitor) [1, 10]: 0 nM/min
% Inhibition ([7]; Cat1 S3, [I] 0.5 nM): 25.0%
V1 ([7]; Cat1 S3, [I] 0.5 nM): 6.0
% Inhibition ([7]; Cat1 S3, [I] 1.0 nM): 24.3%
V1 ([7]; Cat1 S3, [I] 1.0 nM): 5.6
% Inhibition ([7]; Cat1 S3, [I] 5.0 nM): 37.9%
V1 ([7]; Cat1 S3, [I] 5.0 nM): 4.9
% Inhibition ([7]; Cat1 S3, [I] 10.0 nM): 53.2%
V1 ([7]; Cat1 S3, [I] 10.0 nM): 4.4
% Inhibition ([7]; Cat1 S3, [I] 50.0 nM): 68.7%
V1 ([7]; Cat1 S3, [I] 50.0 nM): 2.6
% Inhibition ([7]; Cat1 S3, [I] 100.0 nM): 78.0%
V1 ([7]; Cat1 S3, [I] 100.0 nM): 1.8
Ki ([7]; found using the Enzfitter software package, read-out: Kl for the inhibition of Cat1 S3): 2.64 nM

N=C(N)SCCCOc1oc(=O)c2cc(NC(=O)NCc3ccccc3)ccc2c1Cl [PhCH2NHCONH-CiTPrOIC]
% Inhibition ([1]; substrate 2 Z-Phe-Arg-NHMec): 100%
v1 (rate after inhibitor) ([1]; substrate 2 Z-Phe-Arg-NHMec): 0 nM/min

Cc1cc(=O)oc2cc(NC(=O)[C@H](CCCN=C(N)N)NC(=O)[C@H](CCCCN)NC(=O)[C@@H](NC(=O)[C@H](CCCN=C(N)N)NC(=O)[C@@H]3CCC(=O)N3)[C@@H](C)O)ccc12 [Pyr-Arg-Thr-Lys-Arg-NHMec] ([pGlu]RTKR-{AMC})
Rate [8]: 0.58 nM/min
Rate [9]: 0.33 nM/min
